Test results reported in DBAASP.
In brackets after ≈: the same amount, converted by molar mass. Several values for one entry are separate records, joined by “and”; a condition that tells them apart may be missing. Identical values can stand only once. Values belong to the molecule of their own block, whether it stands above or below them.

What was measured:
Assay in all cases: ≥ marks a high value that may be exact or a test limit, other limits are often not marked, values filed in µg/mL are converted to µM
[1] = test system: Staphylococcus aureus ATCC 33591
[2] = test system: Escherichia coli ATCC BAA-3051
[3] = test system: Bacillus subtilis ATCC 6051
[4] = test system: Micrococcus luteus ATCC 9341
Bacillus megaterium Bm11 = test system: Bacillus megaterium Bm11
Escherichia coli D21 = test system: Escherichia coli D21
[5] = test system: Enterococcus faecalis ATCC 29212
[6] = test system: Salmonella enterica subsp. enterica serovar Typhimurium LT2
[7] = test system: Escherichia coli ATCC 25922
[8] = test system: Acinetobacter calcoaceticus Ac11
[9] = test system: Staphylococcus aureus ATCC 29213
[10] = test system: Salmonella typhimurium SL1344
[11] = test system: Pseudomonas aeruginosa ATCC 27853
[12] = test system: Enterococcus faecalis 981
[13] = test system: Psychrobacter faecalis X29
Nocardia asteroides = test system: Nocardia asteroides
[14] = test system: Staphylococcus aureus ATCC 25923
Candida glabrata 090902 = test system: Candida glabrata 090902
[15] = test system: Aeromonas veronii biovar sobria BJCP-5
[16] = test system: Candida albicans ATCC 10231
[17] = test system: Staphylococcus epidermidis ATCC 12228
[18] = test system: Salmonella enterica subsp. enterica serovar Pullorum C79-13
[19] = test system: Salmonella enterica subsp. enterica serovar Typhimurium C77-31
[20] = test system: Bacillus subtilis CMCC 63501
[21] = test system: Salmonella enterica subsp. enterica serovar Enteritidis
[22] = test system: Staphylococcus pseudintermedius
Fusarium oxysporum = test system: Fusarium oxysporum
Escherichia coli SBS 363 = test system: Escherichia coli SBS 363
[23] = test system: Micrococcus luteus CIP 5345
Botrytis cinerea = test system: Botrytis cinerea
[24] = test system: Bacillus subtilis KCTC 1918
[25] = test system: Fusarium oxysporum KCTC 6084
[26] = test system: Escherichia coli KCTC 1682
[27] = test system: Staphylococcus aureus KCTC 1621
[28] = test system: Aspergillus flavus KCTC 7375
[29] = test system: Pseudomonas aeruginosa KCTC 1637
Proteus vulgaris = test system: Proteus vulgaris
[30] = test system: Candida albicans KCTC 7121
[31] = test system: Bacillus megaterium KCTC 1096
[32] = test system: Trichosporon beigelii KCTC 7251
Staphylococcus aureus = test system: Staphylococcus aureus
Escherichia coli W160-37 = test system: Escherichia coli W160-37
[33] = test system: Staphylococcus aureus ATCC 25929

SMILES: CC[C@H](C)[C@H](N=C(O)[C@H](CC(C)C)N=C(O)[C@H](C)N=C(O)[C@H](Cc1ccccc1)N=C(O)[C@H](Cc1ccccc1)N=C(O)CN)C(=O)N1CCC[C@H]1C(O)=N[C@@H](CCCCN)C(O)=N[C@H](C(O)=N[C@H](C(O)=N[C@@H](CO)C(O)=N[C@@H](CO)C(=O)N1CCC[C@H]1C(O)=N[C@@H](CC(C)C)C(O)=N[C@@H](Cc1ccccc1)C(O)=N[C@@H](CCCCN)C(O)=N[C@H](C(O)=N[C@@H](CC(C)C)C(O)=N[C@@H](CC(C)C)C(O)=N[C@@H](CO)C(O)=N[C@@H](C)C(O)=N[C@H](C(O)=NCCN)C(C)C)[C@@H](C)O)[C@@H](C)CC)[C@@H](C)CC [GFFALIPKIISSPLFKTLLSAV]
- MIC [1]: 3.3 µM (≈ 7.94 µg/mL)
- MIC [2]: 13.2 µM (≈ 31.9 µg/mL)
- MIC [3]: 20 µM (≈ 48.1 µg/mL)
- MIC [4]: ≥ 100 µM
- MIC (Bacillus megaterium Bm11): 6.2 µM (≈ 14.9 µg/mL)
- MIC (Escherichia coli D21): ≥ 100 µM
- MIC [5]: 3.3 µM (≈ 7.94 µg/mL)
- MIC [6]: ≥ 100 µM
- MIC [7]: 13.2 µM (≈ 31.9 µg/mL)
- MIC [8]: ≥ 100 µM
- MIC [9]: 3.3 µM (≈ 7.94 µg/mL)
- MIC [10]: ≥ 52.9 µM
- MIC [11]: > 100 µM

SMILES: CC[C@H](C)[C@H](NC(=O)[C@@H]1CCCN1C(=O)[C@@H](N)CO)C(=O)N[C@@H](Cc1cnc[nH]1)C(=O)N[C@@H](C)C(=O)N[C@H]1CSSC[C@@H]2NC(=O)[C@H](CO)NC(=O)[C@H](CCCCN)NC(=O)[C@H](CC(C)C)NC(=O)CNC(=O)[C@H](CO)NC(=O)CNC(=O)[C@@H]3CSSC[C@H](NC(=O)[C@H](C(C)C)NC(=O)CNC(=O)[C@H](CCCN=C(N)N)NC(=O)[C@H](CCC(N)=O)NC(=O)[C@H](Cc4ccc(O)cc4)NC(=O)[C@H](CCCN=C(N)N)NC1=O)C(=O)N[C@@H]([C@@H](C)CC)C(=O)N1CCC[C@H]1C(=O)NCC(=O)N1CCC[C@H]1C(=O)N[C@@H](CSSC[C@@H](C(=O)N[C@H](C(=O)N[C@@H](CCCN=C(N)N)C(=O)N[C@@H](CC(N)=O)C(=O)N[C@@H](CCCN=C(N)N)C(=O)N[C@@H](Cc1c[nH]c4ccccc14)C(=O)N[C@@H](C)C(=O)O)C(C)C)NC2=O)C(=O)N[C@@H](CCCN=C(N)N)C(=O)N[C@@H](Cc1c[nH]c2ccccc12)C(=O)N1CCC[C@H]1C(=O)N[C@@H](Cc1ccc(O)cc1)C(=O)N[C@@H](Cc1ccc(O)cc1)C(=O)N[C@@H](CCCN=C(N)N)C(=O)N[C@@H](C(C)C)C(=O)NCC(=O)N[C@@H](CO)C(=O)N3 [SPIHACRYQRGVCIPGPCRWPYYRVGSCGSGLKSCCVRNRWA]
- MIC [15]: 0.5 µM (≈ 2.37 µg/mL)
- MIC [16]: 16 µM (≈ 75.8 µg/mL)
- MIC [17]: 2.23 µM (≈ 10.6 µg/mL)
- MIC [18]: 2.23 µM (≈ 10.6 µg/mL)
- MIC [5]: 2 µM (≈ 9.48 µg/mL)
- MIC [19]: 2.23 µM (≈ 10.6 µg/mL)
- MIC [14]: 0.569 µM (≈ 2.7 µg/mL)
- MIC [20]: 8 µM (≈ 37.9 µg/mL)
- MIC [9]: 54 µM and > 27 µM
- MIC [21]: 4 µM (≈ 19 µg/mL)
- MIC [22]: ≥ 54 µM

SMILES: CC[C@H](C)[C@H](NC(=O)[C@H](Cc1c[nH]c2ccccc12)NC(=O)[C@H](CCCCN)NC(=O)[C@H](CO)NC(=O)[C@H](CC(C)C)NC(=O)[C@H](Cc1ccccc1)NC(=O)[C@H](CCCCN)NC(=O)[C@H](CC(C)C)NC(=O)[C@H](CC(C)C)NC(=O)[C@H](CCCCN)NC(=O)[C@@H]1CCCN1)C(=O)NCC(=O)O [PKLLKFLSKWIG]
- MIC (Staphylococcus aureus): 14 µM (≈ 20 µg/mL)
- MIC (Escherichia coli W160-37): 24 µM (≈ 34.3 µg/mL)

Results, then the molecule that gave them:

- MIC [12]: 25 µM (≈ 34.1 µg/mL)
- MIC [13]: ≥ 200 µM
- MIC (Nocardia asteroides): 12.5 µM (≈ 17 µg/mL)
- MIC [14]: 12.5 µM (≈ 17 µg/mL)
- MIC (Candida glabrata 090902): ≥ 100 µM
SMILES: CC[C@H](C)[C@H](NC(=O)[C@H](CC(C)C)NC(=O)CNC(=O)[C@@H](NC(=O)[C@@H](NC(=O)[C@@H](N)Cc1ccccc1)[C@@H](C)CC)[C@@H](C)O)C(=O)N[C@@H](CO)C(=O)NCC(=O)N[C@@H](CC(C)C)C(=O)N[C@@H](CCSC)C(=O)N[C@@H](CCCCN)C(=O)N[C@@H](C)C(=O)N[C@@H](CC(C)C)C(N)=O [FITGLISGLMKAL]

- MIC (Fusarium oxysporum): ≥ 200 µM
- MIC (Escherichia coli SBS 363): ≥ 200 µM
- MIC [23]: ≥ 200 µM
- MIC (Botrytis cinerea): ≥ 200 µM
SMILES: CC[C@H](C)[C@H](N)C(=O)N[C@@H](CC(C)C)C(=O)N[C@@H](CCC(=O)O)C(=O)N[C@@H](CC(N)=O)C(=O)N[C@@H](CC(C)C)C(=O)N[C@@H](CC(C)C)C(=O)N[C@@H](C)C(=O)N[C@@H](CCCN=C(N)N)C(=O)N[C@@H](CO)C(=O)N[C@H](C(=O)N[C@@H](CC(N)=O)C(=O)N[C@@H](CCC(=O)O)C(=O)N[C@@H](CC(=O)O)C(=O)N[C@@H](CCCN=C(N)N)C(=O)N[C@@H](CCC(=O)O)C(=O)NCC(=O)N[C@@H](CO)C(=O)N[C@H](C(=O)N[C@@H](Cc1ccccc1)C(=O)O)[C@@H](C)CC)[C@@H](C)O [ILENLLARSTNEDREGSIF]

- MIC [24]: 1.56 µM (≈ 3.16 µg/mL)
- MIC [25]: ≥ 50 µM
- MIC [26]: 4.42 µM (≈ 8.95 µg/mL)
- MIC [27]: 3.12 µM (≈ 6.33 µg/mL)
- MIC [28]: ≥ 50 µM
- MIC [29]: 6.25 µM (≈ 12.7 µg/mL)
- MIC (Proteus vulgaris): 1.56 µM (≈ 3.16 µg/mL)
- MIC [30]: ≥ 50 µM
- MIC [31]: 3.12 µM (≈ 6.33 µg/mL)
- MIC [32]: ≥ 50 µM
SMILES: CC[C@H](C)[C@H](NC(=O)[C@H](CCCCN)NC(=O)[C@H](CCCCN)NC(=O)[C@H](Cc1ccccc1)NC(=O)[C@H](CC(C)C)NC(=O)[C@H](CCCCN)NC(=O)[C@H](Cc1c[nH]c2ccccc12)NC(=O)[C@@H](N)CCCCN)C(=O)N1CCC[C@H]1C(=O)N[C@@H](CCCCN)C(=O)N[C@@H](Cc1ccccc1)C(=O)N[C@@H](CC(C)C)C(=O)N[C@@H](Cc1cnc[nH]1)C(=O)N[C@@H](CC(C)C)C(=O)N[C@@H](C)C(=O)N[C@@H](CCCCN)C(N)=O [KWKLFKKIPKFLHLAK]

- MIC [7]: 17 µM (≈ 32.2 µg/mL)
- MIC [33]: 17 µM (≈ 32.2 µg/mL)
SMILES: CC(C)C[C@H](NC(=O)CNC(=O)[C@H](C)NC(=O)[C@H](CC(C)C)NC(=O)[C@H](CC(C)C)NC(=O)[C@@H](NC(=O)[C@H](CCCCN)NC(=O)[C@H](CC(C)C)NC(=O)[C@H](CC(C)C)NC(=O)[C@H](C)NC(=O)[C@@H]1CCCN1C(=O)[C@H](CC(C)C)NC(=O)[C@H](C)NC(=O)[C@@H](NC(=O)CNC(=O)[C@H](CC(C)C)NC(=O)[C@@H](N)CCCN=C(N)N)[C@@H](C)O)[C@@H](C)O)C(=O)N[C@@H](CC(N)=O)C(=O)NCC(N)=O [RLGTALPALLKTLLAGLNG]
